From PubChem BioAssay AID463094 (The Scripps Research Institute Molecular Screening Center, 2010)
The source made the active and inactive calls.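 Rule for the calls: active = inhibition at or above 90%; inactive = inhibition below 90%.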

Target: Glutathione S-transferase omega-1 (Homo sapiens) (UniProt P78417)
Experiment: in situ GSTO1 inhibitors in cancer cells, late-stage follow-up, cell-based, MDA-MB-435, in-gel fluorescence (AID 463094)
Details: MDA-MB-435 in situ, competitive ABPP gel fluorescence, 1 h; at 1 µM; hits give high values

Sequence of Glutathione S-transferase omega-1 (Homo sapiens) (P78417 whole entry, looked up): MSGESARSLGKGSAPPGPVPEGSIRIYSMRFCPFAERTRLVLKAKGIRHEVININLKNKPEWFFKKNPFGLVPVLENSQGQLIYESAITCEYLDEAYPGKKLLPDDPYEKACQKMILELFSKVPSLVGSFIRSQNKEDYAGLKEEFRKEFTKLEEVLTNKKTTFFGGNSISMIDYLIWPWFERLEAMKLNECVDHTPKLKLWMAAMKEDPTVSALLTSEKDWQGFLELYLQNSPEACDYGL

Row | inhibition | SMILES
1 | 77% (inactive) | C#CCNC(=O)C(c1ccc(OC)cc1)N(C(=O)CCl)c1cccc(Cl)c1 (stereo not given)
2 | 65% (inactive) | CCOC(=O)c1sc(N(Cc2ccccc2)C(=O)CCl)nc1C
3 | 100% | COc1ccc(C(C(=O)NC2CCCCC2)N(C(=O)CCl)c2cccc(Cl)c2)cc1 (stereo not given)
4 | 53% (inactive) | Cc1cccc(CN2CCN(C(=O)CCl)CC2)c1
5 | 17% (inactive) | O=S(=O)(c1ccc(Cl)cc1)N1CCC2(CC1)CO2
6 | 100% | O=C(NC1CCCCC1)C(c1cccnc1)N(C(=O)CCl)c1cccc(Cl)c1 (stereo not given)

Second part, the compound before the results:

Row | SMILES | inhibition
7 | C#CCNC(=O)C(c1ccc(OC)cc1)N(C(=O)CCl)c1ccc(Cl)cc1 (stereo not given) | 30% (inactive)
8 | COc1ccc(C(C(=O)NC2CCCCC2)N(C(=O)CCl)c2ccc(Cl)cc2)cc1 (stereo not given) | 60% (inactive)
9 | O=C(NC1CCCCC1)C(c1cccnc1)N(C(=O)CCl)c1ccc(F)cc1 (stereo not given) | 100%
10 | C#CCCC(=O)NCCCN(C(=O)CCl)c1ccc([N+](=O)[O-])cc1 | 97%
11 | C#CCCCCNC(=O)C(c1ccc(OC)cc1)N(C(=O)CCl)c1cccc(Cl)c1 (stereo not given) | 90%
12 | C#CCCCCNC(=O)C(c1cccnc1)N(C(=O)CCl)c1ccc(F)cc1 (stereo not given) | 95%
13 | C#CCN(CCCN(C(=O)CCl)c1ccc([N+](=O)[O-])cc1)C(=O)C(F)(F)F | 100%
14 | COc1ccc(N(C(=O)CCl)C(C(=O)NC2CCCCC2)c2cccnc2)cc1 (stereo not given) | 95%
15 | COc1ccc(N(C(=O)CCl)C(C(=O)NCCc2ccccc2)c2cccs2)cc1Cl (stereo not given) | 95%
